Reference: patent publication US11414450B1, “Aminoglycosides and uses thereof” (REVAGENIX, INC., priority 2017, dated 2022)
Converted amounts (≈) assume the structure as drawn.

How the values were obtained:
[1] = tested on: E. coli isogenic strain aph(3′)-II; experiment: MIC broth microdilution, E. coli isogenic strain aph(3′)-II; format: cell-based; conditions: for Geometric Mean MIC values, E. coli isogenic strains, aph(3′)-II: Table 2
Protocol: (§1) Minimum inhibitory concentrations for the example compounds herein are determined by the broth microdilution method in accordance with the Clinical and Laboratory Standards Institute (CLSI) guidelines. In brief, organism suspensions are adjusted to a 0.5 McFarland standard to yield a final inoculum between 3×10^5 and 7×10^5 colony-forming units (CFU)/mL. Compound dilutions and inocula are made in sterile, cation adjusted Mueller-Hinton Broth (Beckton Dickinson). The inoculum is prepared by suspension of a colony from an agar plate that is prepared the previous day. Bacteria are suspended in sterile saline and added to each assay plate to obtain a final concentration of 5×10^5 CFU/mL. An inoculum volume of 100 μL is added to wells containing 100 μL of broth with 2-fold serial dilutions of the compound. All inoculated microdilution trays are incubated in ambient air at 35° C. for 18-24 hours. Following incubation, the lowest concentration of the compound that prevents visible growth (OD 600 nm<0.05) is recorded as the MIC. […] Performance of the assay is monitored by the use of laboratory quality-control strains and a compound with a defined MIC spectrum (such as levofloxacin), in accordance with CLSI guidelines. Compounds are tested against multiple microbiologic panels. Panels include: 1) a multi-species primary screening panel that includes multiple defined AG-R mechanisms; 2) a panel of isogenic strains carrying different common mechanisms of AG-R that allows characterization of the SAR for AMEs, RMTs, and entry and efflux resistance mechanisms; and 3) panels of recent clinical isolates selected from Phase 3 studies and ongoing global surveillance.

[2] = tested on: E. coli isogenic strain aph(3′)-Ia; experiment: MIC broth microdilution, E. coli isogenic strain aph(3′)-Ia; format: cell-based; conditions: for Geometric Mean MIC values, E. coli isogenic strains, aph(3′)-Ia: Table 2, aph(3′)-Ia has activity at both the 3′-hydroxy and 5″-hydroxy positions
Protocol: as §1

[3] = tested on: E. coli isogenic strain ant(4′)-Ia; experiment: MIC broth microdilution, E. coli isogenic strain ant(4′)-Ia; format: cell-based; conditions: Table 2
Protocol: as §1

[4] = tested on: E. coli isogenic strain empty vector; experiment: MIC broth microdilution, E. coli isogenic strain, empty vector; format: cell-based; conditions: for Geometric Mean MIC values, E. coli isogenic strains, empty vector: Table 2
Protocol: as §1

[5] = tested on: E. coli Δefflux (tolC efflux pump knocked-out); experiment: MIC broth microdilution, E. coli Δefflux strain (tolC knocked out); format: cell-based
Protocol: as §1

[6] = tested on: E. coli isogenic strain nmpA; experiment: MIC broth microdilution, E. coli isogenic strain nmpA; format: cell-based; conditions: for Geometric Mean MIC values, E. coli isogenic strains, nmpA: Table 2
Protocol: as §1

[7] = tested on: E. coli isogenic strain aac(6′)-Ib; experiment: MIC broth microdilution, E. coli isogenic strain aac(6′)-Ib; format: cell-based; conditions: for Geometric Mean MIC values, E. coli isogenic strains, aac(6′)-Ib: Table 2
Protocol: as §1

[8] = tested on: E. coli efflux parent; experiment: MIC broth microdilution, E. coli efflux parent strain; format: cell-based
Protocol: as §1

[9] = tested on: E. coli isogenic strain armA; experiment: MIC broth microdilution, E. coli isogenic strain armA; format: cell-based; conditions: for Geometric Mean MIC values, E. coli isogenic strains, armA: Table 2
Protocol: as §1

[10] = tested on: E. coli ATCC 25922; experiment: Minimum inhibitory concentration (broth microdilution, CLSI), E. coli ATCC 25922; format: cell-based
Protocol: as §1

[11] = tested on: P. aeruginosa ATCC 27853; experiment: MIC broth microdilution, P. aeruginosa ATCC 27853; format: cell-based; conditions: Table 1; geometric mean
Protocol: as §1

[12] = tested on: translation; experiment: Translation Inhibition Assay; format: biochemical; conditions: Table 1
Source text: Biological Example 2: Translation Inhibition Assay

[13] = tested on: P. aeruginosa Δefflux (MexAB-OprM, MexCD-OprJ, MexEF-OprN knocked out); experiment: MIC broth microdilution, P. aeruginosa Δefflux strain; format: cell-based; conditions: Table 1, MexEF-OprN efflux pumps knocked out
Protocol: as §1

[14] = tested on: P. aeruginosa efflux parent; experiment: MIC broth microdilution, P. aeruginosa efflux parent strain; format: cell-based; conditions: Table 1; geometric mean
Protocol: as §1

SMILES	Geometric Mean MIC values, E. coli isogenic strains, aph(3′)-II [1] [µg/mL]	Geometric Mean MIC values, E. coli isogenic strains, aph(3′)-Ia [2] [µg/mL]	Geometric Mean MIC values, E. coli isogenic strains, ant(4′)-Ia [3] [µg/mL]	Geometric Mean MIC values, E. coli isogenic strains, empty vector [4] [µg/mL]	Geometric Mean MIC values, E. coli Δefflux ([5]; Table 2) [µg/mL]	Geometric Mean MIC values, E. coli isogenic strains, nmpA [6] [µg/mL]	Geometric Mean MIC values, E. coli isogenic strains, aac(6′)-Ib [7] [µg/mL]	Geometric Mean MIC values, E. coli efflux parent ([8]; Table 2) [µg/mL]	Geometric Mean MIC values, E. coli isogenic strains, armA [9] [µg/mL]	Geometric Mean MIC values, E. coli ATCC 25922 ([10]; Table 2) [µg/mL]	other results
NCC1OC(OC2C(N)CC(N)C(O)C2OC2OC(CO)C(OC3OC(CN)C(O)C(O)C3N)C2O)C(N)CC1O (stereo not shown) [drawing 864, reference compound]	0.25	38	2	0.32	0.25	>64	2	0.63	0.6	0.71	
NCC1OC(OC2C(CO)OC(OC3C(O)C(N)CC(N)C3OC3OC(CN)C(O)C(F)C3N)C2O)C(N)C(O)C1O (stereo not shown) [drawing 868]	8	>64	32	16	4	>64	>64	8	64	16	
CC(N)C1CCC(N)C(OC2C(N)CC(N)C(O)C2OC2OC(CO)C(OC3OC(CN)C(O)C(O)C3N)C2O)O1 (stereo not shown) [drawing 857]	0.71	64	0.71	0.84	0.84	>64	1	1	1.5	1.4	
CO[C@@H]1[C@@H](O[C@@H]2O[C@H](CO)[C@@H](O[C@H]3O[C@@H](CN)[C@@H](O)[C@H](O)[C@H]3N)[C@H]2O)[C@H](O[C@H]2O[C@H](CN)CC[C@H]2N)[C@@H](N)C[C@H]1N [drawing 889]											MIC ([1]; Escherichia coli, read-out: Geometric Mean MIC values, E. coli isogenic strains aph(3′)-II): 0.5 µg/mL (≈ 0.838 µM); MIC ([2]; Escherichia coli, read-out: Geometric Mean MIC values, E. coli isogenic strains aph(3′)-Ia): 16 µg/mL (≈ 26.8 µM); MIC ([4]; Escherichia coli, read-out: Geometric Mean MIC values, E. coli isogenic strains empty vector): 0.5 µg/mL (≈ 0.838 µM); Geometric Mean MIC values, E. coli Δefflux ([5]; E. coli Δefflux): 0.5 µg/mL; MIC ([6]; Escherichia coli, read-out: Geometric Mean MIC values, E. coli isogenic strains npmA): > 32 µg/mL; MIC ([7]; Escherichia coli, read-out: Geometric Mean MIC values, E. coli isogenic strains aac(6′)-Ib): 8 µg/mL (≈ 13.4 µM); MIC ([8]; Escherichia coli, E. coli efflux parent strain, read-out: Geometric Mean MIC values, E. coli efflux parent): 0.5 µg/mL (≈ 0.838 µM); MIC ([9]; Escherichia coli, read-out: Geometric Mean MIC values, E. coli isogenic strains armA): 0.5 µg/mL (≈ 0.838 µM); MIC ([10]; Escherichia coli, ATCC25922, E. coli ATCC 25922, broth microdilution, read-out: Geometric Mean MIC values, E. coli ATCC 25922): 1 µg/mL (≈ 1.68 µM)
NCC1OC(OC2C(CO)OC(OC3C(O)C(N)CC(N)C3OC3OC(CN)C(O)C(F)C3N)C2O)C(N)C(O)C1O (stereo not shown) [drawing 869]	1	>64	1	1	1	>64	4	1	4	1	
NC[C@@H]1O[C@H](O[C@H]2[C@@H](O)[C@H](O[C@@H]3[C@@H](O)[C@H](N)C[C@H](N)[C@H]3O[C@H]3O[C@H](CN)[C@@H](O)[C@H](O)[C@H]3N)O[C@@H]2CO)[C@H](N)[C@@H](O)[C@@H]1O [NEO, neomycin B, reference compound]	18	>64	2.2	0.64	0.79	80	1.6	0.76	0.75	1	
CC(N)C1CCC(N)C(OC2C(N)CC(N)C(O)C2OC2OC(CO)C(OC3OC(CN)C(O)C(O)C3N)C2O)O1 (stereo not shown) [drawing 858]	1	>64	0.5	1	1	>64	1	1	1.4	2	
NCC1OC(OC2C(CO)OC(OC3C(O)C(N)CC(N)C3OC3OC(CN)C(O)C(F)(F)C3N)C2O)C(N)C(O)C1O (stereo not shown) [drawing 870]	4	>64	8	4	2	>64	>64	4	32	5	
CCC(N)C1CCC(N)C(OC2C(N)CC(N)C(O)C2OC2OC(CO)C(OC3OC(CN)C(O)C(O)C3N)C2O)O1 (stereo not shown) [drawing 861]	0.5	>64	0.5	1	1	>64	1	2	5.7	1.4	
NCC1OC(OC2C(CO)OC(OC3C(O)C(N)CC(N)C3OC3OC(CN)C(O)C(F)C3N)C2O)C(N)C(O)C1O (stereo not shown) [drawing 866]	1	>64	8	0.63	0.71	>64	8	1.4	1.4	1.3	
NCC1OC(OC2C(CO)OC(OC3C(O)C(N)CC(N)C3OC3OC(C4(N)CC4)CCC3N)C2O)C(N)C(O)C1O (stereo not shown) [drawing 859]	1	>32		0.5	1	32	1	1	4	1	
CCC(N)C1CCC(N)C(OC2C(N)CC(N)C(O)C2OC2OC(CO)C(OC3OC(CN)C(O)C(O)C3N)C2O)O1 (stereo not shown) [drawing 851]											Geometric Mean MIC values, P. aeruginosa ATCC 27853 [11]: 2 µg/mL; IC50 [12]: 32 nM; Geometric Mean MIC values, P. aeruginosa Δefflux [13]: 0.5 µg/mL; Geometric Mean MIC values, E. coli Δefflux ([5]; Table 1): 1 µg/mL; Geometric Mean MIC values, P. aeruginosa efflux parent [14]: 2 µg/mL; Geometric Mean MIC values, E. coli efflux parent ([8]; Table 1): 2 µg/mL; Geometric Mean MIC values, E. coli ATCC 25922 ([10]; Table 1): 2 µg/mL
